The text below walks through data of US20220339150A1, “ENDOCANNABINOID SYSTEM-TARGETING PRODRUGS AND THERAPEUTIC USES THEREOF” (priority 2021, published 2022).

The structures appear in SMILES notation. In brackets after ≈: the same amount, converted by molar mass. Like-named read-outs stand apart in the source and are kept apart here.

In data set [1] the test system is reconstructed human epidermis cells. The data set is described as follows: In vitro skin permeability (SkinEthic Episkin reconstructed human epidermis). Type of data set: in vitro ADME. To be noted: for Skin permeation, applied compound (parent or intact prodrug): receiver 15% HP-beta-CD pH 7.4. The protocol: The in vitro permeability studies were carried out in commercial reconstructed human epidermis cells (SkinEthic™ Episkin Reconstructed human epidermis). This model is composed of TR146 cells (derived from a squamous cell carcinoma of the buccal mucosa) cultivated on an inert polycarbonate filter at the air-liquid interface in a chemically defined medium. This model forms an epithelial tissue devoid of stratum corneum, resembling histologically to the mucosa of the oral cavity.
Upon receiving the cells, each insert (0.5 cm^2 or 0.33 cm^2) was placed in a plate containing 800 μL fresh medium at room temperature. The culture dishes were placed in the incubator at 37° C., 5% CO2, and saturated humidity overnight. Next day, the inserts were placed in a plate containing 800 μL 15% HP-β-cyclodextrin in H2O. CBD and CBG, and prodrugs CBDp27 and CBGp1 were dissolved in two different vehicles, 1:1:1 prop gly:water:EtOH/6% Brij 98, and 100% mineral oil. The receiver solution was 15% HP-beta-CD in phosphate buffer (pH 7.4). 400 μL the prodrugs were applied as suspensions (ca. 2 mg/ml). The plates were stirred gently at 37° C. At appropriate intervals, the receptor compartment was sampled (100 μL) and replenished with fresh […] solution each time. The samples were mixed with 100 μL of MeOH, and analyzed for drug (both the parent drug and prodrug) by HPLC-MS.
The flux-values for the rate of delivery of drugs were determined from Fick's law of diffusion.

The nature of data set [2]: Metabolic stability in human liver microsomes. It is filed as in vitro ADME. To be noted: for half-life at 15 µg/mL: pH 7.4, Table 3; for half-life: pH 7.4, Table 5. As for the experimental part:
The prodrugs were incubated with the human liver microsomes at 37° C. as an indication of the susceptibility of prodrugs to undergo bioconversion in the liver. The reactions were initiated by adding 1.5 μL of the prodrug stock solution (10 mg/mL in DMSO) to a preheated solution consisting of 748.5 μL potassium phosphate buffer solution (20 mM, pH 7.4, ionic strength 0.5), 200 μL NADPH, and 50 μLhuman liver microsomes (mixed gender, 0.5 ml at 20 mg/mL). The solutions were stirred at a constant temperature of 37° C. At appropriate intervals, 50 μLof samples were mixed with 100 μL of ice-cold MeOH. After immediate mixing and centrifugation (5 min at 14.000 rpm), the resulting clear supernatant was analyzed for the remaining prodrug by HPLC.
On the technique in general: Microsomes from liver hold many membrane-bound enzymes, among them those of drug oxidation.

Data set [3] can be described thus: Aqueous solubility of CBD and solubility in various solvents. It is filed as physicochemical. As for the experimental part:
CBD was dissolved in 50 mM phosphate buffer, pH 6.8, containing 10% (v/v) EtOH. Suspensions were centrifuged for 3 min at 14000 rpm. Solubilities are between 15-110 μg/ml. Some floating particles can be seen which, once dissolved, cause variation in the result. When the suspension was filtered (Millex 0.45 μm) no detectable (HPLC) CBD was found.
CBD solubility in various solvents when ca. 1 mg was dissolved in ca. 1 ml. Solutions/suspensions were centrifuged, and 100 μl of the sample was mixed with 100 μl MeOH:H2O (1:1).
The solubility of CBD in various solvents is shown below: • 1. 50% EtOH:50% H2O=ca. 1 mg/ml • 2. 15% HP-beta-CD:85% H2O=0.7 mg/ml • 3. 5% HP-beta-CD:0.5% HPMC:84.5% H2O=0.16 mg/ml • 4. 4% BSA:95% H2O=0.07 mg/ml • 5. 90% Propylene glycol:10% H2O=0.87 mg/ml • 6. 30% Solutol® HS 15:10% EtOH:60% H2O=0.96 mg/ml

Data set [4] is described as follows: Stability in aqueous solutions (sodium phosphate buffer, 37° C.). It is filed as physicochemical. To be noted: aqueous buffer pH 6.8, 37° C., single determinations. The protocol:
[…] The solutions of prodrugs were prepared by adding 10 μL of stock solution (10 mg/mL in DMSO) to the preheated buffer. The solutions were stirred at a constant temperature of 37° C. At appropriate intervals, 75 μL of samples were mixed with 75 μL of MeOH and analyzed for remaining prodrug by HPLC.
The pseudo-first-order rate constants (kobs) and half-lives (t1/2) for the degradation of the prodrugs were determined from the linear slopes of the plots by taking the logarithm of the remaining prodrug over time. Equations: kobs=slope/−2.303 and t1/2=ln2/kobs.

For data set [5], the system named is reconstructed human oral buccal epithelium cells (SkinEthic HOE, TR146 cells). The data set can be described thus: In vitro buccal permeability (SkinEthic human oral epithelium). To be noted: Table 4. It is filed as in vitro ADME. As for the experimental part:
The in vitro permeability studies were carried out in commercial reconstructed human oral buccal epithelium cells (SkinEthic™ human oral epithelium). The SkinEthic™ HOE model is composed of TR146 cells (derived from a squamous cell carcinoma of the buccal mucosa) cultivated on an inert polycarbonate filter at the air-liquid interface in a chemically defined medium. This model forms an epithelial tissue devoid of stratum corneum, resembling histologically to the mucosa of the oral cavity.
Upon receiving the cells, each insert (0.5 cm^2 or 0.33 cm^2) was placed in a plate containing 800 μL fresh medium at room temperature. The culture dishes were placed in the incubator at 37° C., 5% CO2, and saturated humidity overnight. Next day, the inserts were placed in a plate containing 800 μL 15% HP-β-cyclodextrin in H2O. The prodrugs were dissolved in 100% EtOH (5% (V/V) final conc.), and then sodium phosphate buffer solution (50 mM, pH 6.8, isotonic, 37° C.) was added (95% (V/V) final conc.). 400 μL of the prodrugs were applied as suspensions (ca. 2 mg/ml). The plates were stirred gently at 37° C. At appropriate intervals, the receptor compartment was sampled (100 μL) and replenished with fresh […] solution each time. The samples were mixed with 100 μL of MeOH, and analyzed for drug (both the parent cannabinoid and the prodrug) by HPLC-MS.
The buccal flux-values for the rate of delivery of drugs were determined from Fick's law of diffusion.

Data set [6] in a line: Stability in 80% human plasma (serum). Type of data set: in vitro ADME. To be noted: 80% human serum (pH 7.4) at 37° C. As for the experimental part:
The rates of the degradation of the prodrugs were determined in 80% human serum (pH 7.4) at 37° C. as an indication of the susceptibility of prodrugs to undergo bioconversion after reaching the circulation. The reactions were initiated by adding the first 10 μL of the prodrug stock solution (10 mg/mL in DMSO) to 200 μL preheated sodium phosphate buffer solution (50 mM, pH 7.4, ionic strength 0.5), and then adding 800 μL preheated human serum. The solutions were stirred at a constant temperature of 37° C. At appropriate intervals, 50 μL of samples were mixed with 150 μL of ice-cold MeOH. After immediate mixing and centrifugation (5 min at 14.000 rpm), the resulting clear supernatant was analyzed for the remaining prodrug by HPLC.

Where [7] appears, read: vehicle solvent mix (1:1:1 prop gly:water:EtOH/6% Brij 98).
Where [8] appears, read: both sexes, human, microsomes, 37° C., NADPH, read-out: Half-life in human liver microsomes (single determinations) (converted).
The mark [9] stands for this setting: both sexes, human, microsomes, average of determinations, read-out: Half-life in human liver microsomes (avg.) (converted).

On to `C=C(C)[C@@H]1CCC(C)=C[C@H]1c1c(O)cc(CCCCC)cc1O` [CBD, Cannabidiol], for which the entries for the “Skin permeation, applied compound (parent or intact prodrug)” value in data set [1] (vehicle mineral oil) and in data set [1] (setting [7]) were 0.0233 ± 0.007 nmol/cm^2/h and 1.16 ± 0.12 nmol/cm^2/h, respectively. In addition, in data set [2] (Table 3, 37° C., NADPH), the “Half-life in human liver microsomes (single determinations)” value stood at 23.4 min. Besides, the half-life at 15 µg/mL was 36 min in data set [2] (setting [8]) and 30 min in data set [2] (setting [9]). The microsomal CLint at 15 µg/mL in data set [2] (both sexes, human, microsomes, pH 7.4, Table 3, CLint = k/P, protein 1 mg, read-out: Intrinsic clearance CLint) is 23.1 µL/min/mg. Besides, in data set [3] (50 mM phosphate buffer, pH 6.8, 10% EtOH, suspension filtered (Millex 0.45 μm)), the “Solubility after filtration (HPLC)” value is listed as “no detectable”. Moreover, the solubility in data set [3] (15% HP-beta-CD:85% H2O, ca. 1 mg in ca. 1 ml) is 700 µg/mL (≈ 2230 µM); in data set [3] (aqueous with cosolvent or surfactant or cyclodextrin, thermodynamic from solid, 4% BSA:95% H2O, ca. 1 mg in ca. 1 ml, read-out: Solubility), 70 µg/mL (≈ 223 µM); in data set [3] (aqueous with cosolvent or surfactant or cyclodextrin, thermodynamic from solid, 5% HP-beta-CD:0.5% HPMC:84.5% H2O, ca. 1 mg in ca. 1 ml, read-out: Solubility), 160 µg/mL (≈ 509 µM); in data set [3] (aqueous with cosolvent or surfactant or cyclodextrin, thermodynamic from solid, 30% Solutol HS 15:10% EtOH:60% H2O, ca. 1 mg in ca. 1 ml, read-out: Solubility) it was 960 µg/mL (≈ 3050 µM); in data set [3] (aqueous with cosolvent or surfactant or cyclodextrin, thermodynamic from solid, 50% EtOH:50% H2O, ca. 1 mg in ca. 1 ml, read-out: Solubility), approximately 1000 µg/mL (≈ 3180 µM); in data set [3] (organic solvent or mixture, thermodynamic from solid, 90% Propylene glycol:10% H2O, ca. 1 mg in ca. 1 ml, read-out: Solubility) it was 870 µg/mL (≈ 2770 µM). Besides, the solubility in data set [3] (phosphate buffer with 10% (v/v) ethanol, aqueous with cosolvent or surfactant or cyclodextrin, thermodynamic from solid, 50 mM phosphate buffer, pH 6.8, 10% (v/v) EtOH, suspension centrifuged, read-out: Solubility) was 15 to 110 µg/mL (≈ 47.7 to 350 µM).

Turning to `CCCCCc1cc(O)c(C/C=C(\C)CCC=C(C)C)c(OC(=O)C2CCNC2)c1` (stereo not drawn) [CBGp1, (E)-2-(3,7-dimethylocta-2,6-dien-1-yl)-3-hydroxy-5-pentylphenyl pyrrolidine-3-carboxylate], in data set [4] (Table 5), the Half-life in aqueous solution was 32.4 min. In addition, the half-life was 30 min in data set [4] (buffer, pH 6.8, Table 5, read-out: Half-life in aqueous solution (converted)); 38.4 min in data set [2] (setting [8]); 39.6 min in data set [2] (setting [9]); 42 min in data set [6] (human, serum, pH 7.4, Table 5). Moreover, the “Species making up the buccal flux / formation of parent cannabinoid” value in data set [5] (remark in flux cell) is listed as “(CBG + prodrug)”. For the same compound, the “Flux (buccal)” value in data set [5] (suspension ca. 2 mg/ml in 5% EtOH/phosphate buffer pH 6.8, 37° C., receiver 15% HP-β-cyclodextrin) was determined as 111.79 ± 2.59 nmol/cm^2/h. In addition, the “Skin permeation of prodrug relative to parent cannabinoid” value is listed as approximately 13 fold in data set [1] (mineral oil) and more than 300 fold in data set [1] (solvent mix). Further, the “Skin permeation, applied compound (parent or intact prodrug)” value in data set [1] (vehicle mineral oil) stood at 0.54 ± 0.19 nmol/cm^2/h; in data set [1] (setting [7]) it was 148.0 ± 40.9 nmol/cm^2/h. Also, the Half-life in human liver microsomes (single determinations) in data set [2] (Table 5, 37° C., NADPH) was determined as 40.2 min. The Half-life in serum in data set [6] (Table 5) is 44.4 min.

By half-life is commonly meant how long it takes for the measured level to halve. In general, solubility refers to the dissolved amount per volume that the medium holds.
